Here are results for one compound from patent US4535081A, “Antiallergic and antiulcer 1-oxo-1H-thiazolo[3,2-a]pyrimidine-2-carboxamides and intermediates therefor” (Pfizer Inc., priority 1983, dated 1985).

The subject of assay [1] is IgG (hyperimmune antiserum) PCA reaction. The assay can be described thus: Oral activity in PCA test, IgG. It is filed as in vivo. The settings on record: Rattus norvegicus, 3 mg./kg., read-out: Oral Activity (% of Protection) in the PCA Test, IgG. The procedure:
The antiallergy property of the compounds of this invention is evaluated by the passive cutaneous anaphylaxis (PCA) test (Ovary, J. Immun., 81, 355, 1958). In the PCA test, normal animals are injected intradermally (i.d.) with antibodies contained in serum obtained from actively sensitized animals. The animals are then challenged intravenously with antigen mixed with a dye such as Evans' Blue. The increased capillary permeability caused by the antigen-antibody reaction causes the dye to leak from the site of the antibody injection. The test animals are then asphyxiated and the intensity of the reaction determined by measuring the diameter and intensity of the blue coloration on the inner surface of the animals' skin.
The ability of agents to interfere with PCA reactions is measured in male Charles River Wistar rats, 170-210 g. Reaginic antiserum, rich in IgE antibodies, is prepared according to Petillo et al., Int. Arch. Allergy, 44, 309 (1973). Hyperimmune antiserum rich in IgG antibodies to hen egg albumin is prepared according to Orange et al., J. Exptl. Med., 127, 767 (1968). Forty-eight hours prior to antigen challenge, the reaginic antiserum is injected intradermally (i.d.) into the shaved skin of a normal rat's back; 5 hours before challenge the hyperimmune antisera is similarly injected. At a third site 60 mcg. histamine dihydrochloride and 0.5 mcg. serotonin creatinine sulfate are injected i.d. just prior to antigen challenge as a check for antihistaminic, antiserotonin and unspecific types of blockage; the compounds of the instant invention or saline are then administered i.v. and immediately followed by the challenge of 5 mg. egg albumen and 2.5 mg. Evans' Blue dye in saline. In the case of oral administration Evans' Blue dye and egg albumin are given 5 minutes after administration of the drug. Thirty minutes later the animals are asphyxiated using chloroform and the skin of the back removed and reversed for observation. A score is assigned each injection site equal to the product of the diameter of the site in mm. and a grade of 0.1, 0.5, 1, 2, 3 or 4 proportional to intensity of dye coloration. The scores for a given injection site are summed for each group of five animals and compared to the saline treated controls. The difference is expressed as percent blockage due to the compound employed.
Compounds representative of those of the present invention are tested for antiallergy activity by the above-described procedure and the resulting activities are reported as the degree (%) of protection.

Another assay has as its system ethanol-induced ulcer. The assay can be described thus: Ethanol-induced rat ulcer assay. It is filed as in vivo. Particulars: oral, 5 mg./kg.; Table III; listed as Formula I: (CH2)4. The procedure: Alternatively, the effectiveness of the products of this invention as antiulcer agents is determined in an ethanol-induced rat ulcer assay. In this test, overnight fasted male rats are given drug (5 mg./kg.) or water orally fifteen minutes prior to an orally administered dose of absolute ethanol (1.0 ml.). One hour after the ethanol challenge the animals (8/group) are killed and the stomachs examined for the presence of lesions. All drugs were dissolved in dilute NaOH. After sacrifice the abdomen is opened and a locking hemostat placed at the pylorus. 6 ml. of a 4% solution of formaldehyde was injected into the stomach with a gastric feeding tube and a second locking hemostat was used to seal the esophagus. The stomach was removed, opened along the greater curvature and examined for ulceration.
The scoring system used to quantitate the ethanol-induced lesions is given below.
For each group of animals an ulcer index is calculated as follows:
Ulceration Index=(the sum of the scores of the group)×(the sum of the number of ulcers in the group)×(the fraction of the group having any incidence of ulceration).
The percentage inhibition of ulcers is calculated as follows:
% Inhibition=100×[(ulcer index controls)-(ulcer index drug-treated)].div.(ulcer index controls).

The subject of the next assay is blood glucose levels. The assay can be described thus: Blood glucose in fasted rats. The assay is classed as in vivo, rat. The settings on record: fasted 24 hours; oral 10, 30 or 100 mg/kg.

“And” between values parts separate entries of the source, which are not always exact repeats. Equal entries are not always repeated.

Turning to `O=C(Nc1nnn[nH]1)c1cnc2sc3c(n2c1=O)CCCC3` [Compound III, N-(5-Tetrazolyl)-1-oxo-1H-cyclohexenothiazolo[3,2-a]pyrimidine-2-carboxamide], the inhibition in vivo at 3 mg/kg in assay [1] turned out to be 45%. Moreover, in the assay on ethanol-induced ulcer, the “% Inhibition in the Ethanol-Induced Rat Ulcer Assay, amides” value was 97% and 81%. For the same compound, the blood glucose levels result in the assay with blood glucose levels is recorded as “did not exhibit any changes in blood glucose levels”.
